Test results as given in patent US20230250145A1, “COMPOSITIONS AND METHODS FOR THE TREATMENT OF CANCER” (MOMA Therapeutics, Inc., priority 2020, published 2023).

Legend:
[1] = test system: FANCM protein; assay: Western blot of FANCM protein levels; format: cell-based; details: cells treated with CRISPR RNP sgRNA (FIG. 4B)
Protocol: Cells were plated for all conditions at a necessary density for analysis (1×10^7 cells per/reaction for nuclear isolation). Following treatment, cells were washed with PBS and trypsinized with TrypLE until loss of adherence. Cells were collected in a 15 mL falcon tube and spun down into a pellet at 1,000 RPM×5 minutes. The supernatant is aspirated and pellets were then placed into downstream protocol (NE-PER cell fractionation kit protocol as provided by vendor). Samples were run on 3-8% Bis-tris gels (Thermo fisher Cat #EA0375PK2) for 45 minutes @ 200 v. […] Membranes were stained overnight at 4 degrees with appropriate antibodies.
FANCM: Anti-FANCM Antibody, clone CV5.1 (MABC545) 1:1000 dilution
Lamin B: Recombinant Anti-Lamin B1 antibody [EPR8985(B)] (ab133741) 1:2000 dilution

[2] = test system: FANCM mRNA transcript in UWB1.289; assay: qPCR of FANCM mRNA expression after doxycycline induced shRNA; format: cell-based; details: three days of doxycycline treatment
Description: All shRNAs were cloned into pLKO-tet-on vector, packaged into lentivirus and titered for each cell line for an MOI <0.7.

Row | Substance | FANCM protein expression (Western blot) [1] | FANCM mRNA transcripts (qPCR) [2]
1 | FANCM sgRNA #3: sgRNA targeting the FANCM locus, SEQ ID NO: 69, CATGACCACGGCGGCAATAA (synthetic chemically modified sgRNA (Synthego EZ kit), pattern not given here) | loss of FANCM protein expression | 
2 | FANCM sgRNA #4: sgRNA targeting the FANCM locus, SEQ ID NO: 70, AAAGACCTTTATTGCCGCCG (synthetic chemically modified sgRNA (Synthego EZ kit), pattern not given here) | loss of FANCM protein expression | 
3 | shRNA #1307: doxycycline-inducible shRNA targeting FANCM, SEQ ID NO: 77, GACTTCATGAAACTCTATAAT |  | loss of FANCM mRNA transcripts
4 | shRNA #1858: doxycycline-inducible shRNA targeting FANCM, SEQ ID NO: 78, AGGACGAGAGGAACGTATTTA |  | loss of FANCM mRNA transcripts
